For 1 molecule, Activity results are on record in ChEMBL document CHEMBL3421569, “Stemistry: the control of stem cells in situ using chemistry” (2015).

The nature of experiment [1]: Induction of human ESC differentiation assessed as appearance of pigmented area measured over 8 weeks relative to control. The format is functional, Embryonic stem cell.
A short description of experiment [2]: Induction of human ESC differentiation assessed as increase in microphthalmia-associated transcription factor expression measured over 8 weeks relative to total pigmented area. The format is functional, Embryonic stem cell.

For `NC(=O)c1cccnc1` [NIACINAMIDE], the Activity in experiment [1] is listed as greater than 70%; in experiment [2], 5%.
